Data from PubChem BioAssay (NCI).
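Protocol summary: plate cells (96-well), add compound at 5 concentrations, incubate 48 h, interpolate endpoints linearly. GI50 is the concentration that inhibits growth by half. Definition used: TGI = concentration required for complete inhibition of growth.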

Assays:
Assay in all cases: NCI anticancer screen, dose series, 48 h
786-0 renal = test system: 786-0 renal
A498 renal = test system: A498 renal
A549 NSCLC = test system: A549 NSCLC
ACHN renal = test system: ACHN renal
BT-549 breast = test system: BT-549 breast
CAKI-1 renal = test system: CAKI-1 renal
CCRF-CEM leukemia = test system: CCRF-CEM leukemia
COLO 205 colon = test system: COLO 205 colon
DU-145 prostate = test system: DU-145 prostate
EKVX NSCLC = test system: EKVX NSCLC
HCC-2998 colon = test system: HCC-2998 colon
HCT-116 colon = test system: HCT-116 colon
HCT-15 colon = test system: HCT-15 colon
HL-60(TB) leukemia = test system: HL-60(TB) leukemia
HOP-62 NSCLC = test system: HOP-62 NSCLC
HOP-92 NSCLC = test system: HOP-92 NSCLC
HS 578T breast = test system: HS 578T breast
HT29 colon = test system: HT29 colon
IGROV1 ovarian = test system: IGROV1 ovarian
K-562 leukemia = test system: K-562 leukemia
KM12 colon = test system: KM12 colon
LOX IMVI melanoma = test system: LOX IMVI melanoma
M14 melanoma = test system: M14 melanoma
MALME-3M melanoma = test system: MALME-3M melanoma
MCF7 breast = test system: MCF7 breast
MDA-MB-231 breast = test system: MDA-MB-231 breast
MDA-MB-435 = test system: MDA-MB-435
MDA-MB-468 breast = test system: MDA-MB-468 breast
MOLT-4 leukemia = test system: MOLT-4 leukemia
NCI-H226 lung = test system: NCI-H226 lung
NCI-H23 lung = test system: NCI-H23 lung
NCI-H460 lung = test system: NCI-H460 lung
NCI-H522 lung = test system: NCI-H522 lung
NCI/ADR-RES ovarian = test system: NCI/ADR-RES ovarian
OVCAR-3 ovarian = test system: OVCAR-3 ovarian
OVCAR-4 ovarian = test system: OVCAR-4 ovarian
OVCAR-5 ovarian = test system: OVCAR-5 ovarian
OVCAR-8 ovarian = test system: OVCAR-8 ovarian
RPMI-8226 leukemia = test system: RPMI-8226 leukemia
RXF 393 renal = test system: RXF 393 renal
SF-268 CNS = test system: SF-268 CNS
SF-295 CNS = test system: SF-295 CNS
SF-539 CNS = test system: SF-539 CNS
SK-MEL-2 melanoma = test system: SK-MEL-2 melanoma
SK-MEL-28 melanoma = test system: SK-MEL-28 melanoma
SK-MEL-5 melanoma = test system: SK-MEL-5 melanoma
SK-OV-3 ovarian = test system: SK-OV-3 ovarian
SN12C renal = test system: SN12C renal
SNB-19 CNS = test system: SNB-19 CNS
SNB-75 CNS = test system: SNB-75 CNS
SR leukemia = test system: SR leukemia
SW-620 colon = test system: SW-620 colon
T-47D breast = test system: T-47D breast
TK-10 renal = test system: TK-10 renal
U251 CNS = test system: U251 CNS
UACC-257 melanoma = test system: UACC-257 melanoma
UACC-62 melanoma = test system: UACC-62 melanoma
UO-31 renal = test system: UO-31 renal

## CCN1CCN(Cc2ccc(C(=O)Nc3cccc(-c4cn(-c5ccc6oc(=O)ccc6c5)nn4)c3)cc2C(F)(F)F)CC1
786-0 renal
  GI50: 2.05 µM
  TGI: 4.05 µM
A498 renal
  GI50: 29.1 µM
  TGI: > 100 µM
A549 NSCLC
  GI50: 1.79 µM
  TGI: 3.64 µM
ACHN renal
  GI50: 10.9 µM
  TGI: 22.9 µM
BT-549 breast
  GI50: > 100 µM
  TGI: > 100 µM
CAKI-1 renal
  GI50: 16.5 µM
  TGI: 39.7 µM
CCRF-CEM leukemia
  GI50: 2.23 µM
  TGI: 8.3 µM
COLO 205 colon
  GI50: > 100 µM
  TGI: > 100 µM
DU-145 prostate
  GI50: 15.8 µM
  TGI: 29.2 µM
EKVX NSCLC
  GI50: 3.81 µM
  TGI: 14.6 µM
HCC-2998 colon
  GI50: 2.52 µM
  TGI: 5.47 µM
HCT-116 colon
  GI50: 1.82 µM
  TGI: 3.68 µM
HCT-15 colon
  GI50: 1.78 µM
  TGI: 3.45 µM
HL-60(TB) leukemia
  GI50: 30.1 µM
  TGI: > 100 µM
HOP-62 NSCLC
  GI50: 16.4 µM
  TGI: 31.4 µM
HOP-92 NSCLC
  GI50: 11.1 µM
  TGI: 39.8 µM
HS 578T breast
  GI50: 18.2 µM
  TGI: 67 µM
HT29 colon
  GI50: 1.77 µM
  TGI: 3.72 µM
IGROV1 ovarian
  GI50: 10.5 µM
  TGI: 22.3 µM
K-562 leukemia
  GI50: 2.34 µM
  TGI: 7.26 µM
KM12 colon
  GI50: 5.37 µM
  TGI: 17.6 µM
LOX IMVI melanoma
  GI50: 1.69 µM
  TGI: 3.06 µM
M14 melanoma
  GI50: 2.46 µM
  TGI: 6.86 µM
MALME-3M melanoma
  GI50: 1.6 µM
  TGI: 3 µM
MCF7 breast
  GI50: 1.68 µM
  TGI: 3.2 µM
MDA-MB-231 breast
  GI50: 1.78 µM
  TGI: 3.2 µM
MDA-MB-435
  GI50: 1.76 µM
  TGI: 3.6 µM
MDA-MB-468 breast
  GI50: 12.3 µM
  TGI: 27.4 µM
MOLT-4 leukemia
  GI50: 2.88 µM
  TGI: 12.9 µM
NCI-H226 lung
  GI50: 13.6 µM
  TGI: 27 µM
NCI-H23 lung
  GI50: 1.79 µM
  TGI: 3.56 µM
NCI-H460 lung
  GI50: 3.61 µM
  TGI: 12.6 µM
NCI-H522 lung
  GI50: 17.2 µM
  TGI: 30.9 µM
NCI/ADR-RES ovarian
  GI50: 1.82 µM
  TGI: 3.54 µM
OVCAR-3 ovarian
  GI50: 16.5 µM
  TGI: 30 µM
OVCAR-4 ovarian
  GI50: 13.9 µM
  TGI: 27.6 µM
OVCAR-5 ovarian
  GI50: 16.2 µM
  TGI: 29.7 µM
OVCAR-8 ovarian
  GI50: 7.71 µM
  TGI: 20.3 µM
RPMI-8226 leukemia
  GI50: 2.62 µM
  TGI: 12.2 µM
RXF 393 renal
  GI50: 1.77 µM
  TGI: 3.47 µM
SF-268 CNS
  GI50: 18.1 µM
  TGI: 45.6 µM
SF-295 CNS
  GI50: 14.8 µM
  TGI: 28 µM
SF-539 CNS
  GI50: 12.2 µM
  TGI: 24.6 µM
SK-MEL-2 melanoma
  GI50: 58.3 µM
  TGI: > 100 µM
SK-MEL-28 melanoma
  GI50: 1.81 µM
  TGI: 3.29 µM
SK-MEL-5 melanoma
  GI50: 5.5 µM
  TGI: 18 µM
SK-OV-3 ovarian
  GI50: 21.7 µM
  TGI: 79.4 µM
SN12C renal
  GI50: 14.3 µM
  TGI: 27.4 µM
SNB-19 CNS
  GI50: 17.3 µM
  TGI: 31.1 µM
SNB-75 CNS
  GI50: 12.2 µM
  TGI: 24.6 µM
SR leukemia
  GI50: 6.47 µM
  TGI: 52.6 µM
SW-620 colon
  GI50: 1.71 µM
  TGI: 3.41 µM
T-47D breast
  GI50: > 100 µM
  TGI: > 100 µM
TK-10 renal
  GI50: 19.9 µM
  TGI: 34.1 µM
U251 CNS
  GI50: 1.91 µM
  TGI: 4.03 µM
UACC-257 melanoma
  GI50: 19.2 µM
  TGI: 43.3 µM
UACC-62 melanoma
  GI50: 12.3 µM
  TGI: 24.7 µM
UO-31 renal
  GI50: 10.6 µM
  TGI: 22.4 µM
